Results: US20240316059A1, “PEPTIDE DRUG CONJUGATES” (Oncopeptides AB, priority 2021, published 2024)
Like-named read-outs stand apart in the source and are kept apart here.

System: MM.1S cells
Experiment: In vitro cytotoxic potency in MM.1S cell viability assay (CellTiter-Glo)
Assay type: cell-based, human
Details: 72 h, read-out: MM.1S IC50
Protocol: Methods: MM.1S Cells were cultivated in RPMI medium 1640 (IX) supplemented with 10 μg/μL penicillin/streptomycin, 10% heat inactivated FBS, 0.1 mM Sodium Pyruvate, 1×MEM NEAA (ThermoFisher) and 1 mM HEPES. Cells were grown to reach log phase before being exposed to the test compounds.
(§1) Test compounds (Example compounds 1 to 36, 38 to 41 and 45 to 48) and comparative compounds (bendamustine, busulfan, melphalan, chlorambucil and 4-hydroperoxy cyclophosphamide) were dissolved in 100% DMSO and added to a 384 assay plate. Additional DMSO was added to maintain the same final DMSO concentration (0.2%) in all wells. 25 μL cell suspension with a concentration of 100000 cells/mL was added to each well. The cells were cultured in a CO2 incubator at 37° C. for 72 h. Plates were equilibrated to room temperature for 30 minutes before adding 20 μL CellTiter-Glo® 2.0 (Promega) reagent to all wells. The plate was then allowed to stabilize for 20 minutes before recording the luminescence (emission filter 700 nm) in an Envision plate reader.
All cells were cultivated in RPMI medium 1640 (IX). All media was supplemented with 10 μg/μl penicillin/streptomycin, 10% heat inactivated FBS, 0.1 mM Sodium Pyruvate, 1×MEM NEAA (ThermoFisher) and 1 mM HEPES. The DERL-2 cells had higher FBS (20%) and 40 ng/mL IL-2 was added. hPBMCs were thawed and allowed to acclimatise overnight and then stimulated with 10 μg/mL PHA-M and 40 ng/mL IL-2 for 4 hours before being exposed to test compounds. All cells, except for hPBMCs, were grown to reach log phase before being exposed to the test compounds.
as §1, with “compounds” for “compounds (Example compounds 1 to 36, 38 to 41 and 45 to 48) and comparative compounds (bendamustine, busulfan, melphalan, chlorambucil and 4-hydroperoxy cyclophosphamide)”, “(Em” for “(emission”

O=P1(N(CCCl)CCCl)NC(OO)CCO1 (centres unmarked) [4-hydroperoxy cyclophosphamide, reference compound]
IC50 (CellTiter-Glo 2.0): 7300 nM

CS(=O)(=O)OCCCCOS(C)(=O)=O [Busulfan, busulfan, reference compound]
IC50 (Homo sapiens, MM1.S, CellTiter-Glo 2.0): 180000 nM

O=C(O)CCCc1ccc(N(CCCl)CCCl)cc1 [Chlorambucil, chlorambucil, reference compound]
IC50 (Homo sapiens, MM1.S): 6870 nM

CCOC(=O)[C@@H](NC(=O)[C@@H](N)CCc1nc2cc(N(CCCl)CCCl)ccc2n1C)C(C)C [Example 3, Ethyl (2S)-2-[[(2S)-2-amino-4-[5-[bis(2-chloroethyl)amino]-1-methyl-benzimidazol-2-yl]butanoyl]amino]-3-methyl-butanoate]
IC50 (Homo sapiens, MM1.S): 6.8 nM

CCOC(=O)[C@H](CC(C)C)NC(=O)[C@@H](N)Cc1nc2cc(N(CCCl)CCCl)ccc2n1C [Example 4, Ethyl (2S)-2-[[(2S)-2-amino-3-[5-[bis(2-chloroethyl)amino]-1-methyl-benzimidazol-2-yl]propanoyl]amino]-4-methyl-pentanoate]
IC50 (Homo sapiens, MM1.S): 6.6 nM

CCOC(=O)[C@H](Cc1ccc(F)cc1)NC(=O)[C@@H](N)Cc1nc2cc(N(CCCl)CCCl)ccc2n1C [Example 5, Ethyl (2S)-2-[[(2S)-2-amino-3-[5-[bis(2-chloroethyl)amino]-1-methyl-benzimidazol-2-yl]propanoyl]amino]-3-(4-fluorophenyl)propanoate]
IC50 (Homo sapiens, MM1.S): 22.6 nM

CCOC(=O)[C@@H](NC(=O)[C@@H](N)Cc1nc2cc(N(CCCl)CCCl)ccc2n1C)C(C)C [Example 6, Ethyl (2S)-2-[[(2S)-2-amino-3-[5-[bis(2-chloroethyl)amino]-1-methyl-benzimidazol-2-yl]propanoyl]amino]-3-methyl-butanoate]
IC50 (Homo sapiens, MM1.S): 98.7 nM

CCOC(=O)[C@H](CCc1nc2cc(N(CCCl)CCCl)ccc2n1C)NC(=O)[C@@H](N)CC(C)C [Example 7, Ethyl (2S)-2-[[(2S)-2-amino-4-methyl-pentanoyl]amino]-4-[5-[bis(2-chloroethyl)amino]-1-methyl-benzimidazol-2-yl]butanoate]
IC50 (Homo sapiens, MM1.S): 22.9 nM

CCOC(=O)[C@H](CCc1nc2cc(N(CCCl)CCCl)ccc2n1C)NC(=O)[C@@H](N)Cc1ccc(F)cc1 [Example 8, Ethyl (2S)-2-[[(2S)-2-amino-3-(4-fluorophenyl)propanoyl]amino]-4-[5-[bis(2-chloroethyl)amino]-1-methyl-benzimidazol-2-yl]butanoate]
IC50 (Homo sapiens, MM1.S): 14.4 nM

CCOC(=O)[C@H](CCc1nc2cc(N(CCCl)CCCl)ccc2n1C)NC(=O)[C@@H](N)C(C)C [Example 9, Ethyl (2S)-2-[[(2S)-2-amino-3-methyl-butanoyl]amino]-4-[5-[bis(2-chloroethyl)amino]-1-methyl-benzimidazol-2-yl]butanoate]
IC50 (Homo sapiens, MM1.S): 22.5 nM

CCOC(=O)[C@H](Cc1nc2cc(N(CCCl)CCCl)ccc2n1C)NC(=O)[C@@H](N)Cc1ccc(F)cc1 [Example 11, Ethyl (2S)-2-[[(2S)-2-amino-3-(4-fluorophenyl)propanoyl]amino]-3-[5-[bis(2-chloroethyl)amino]-1-methyl-benzimidazol-2-yl]propanoate]
IC50 (Homo sapiens, MM1.S): 14.7 nM

CCOC(=O)[C@H](Cc1nc2cc(N(CCCl)CCCl)ccc2n1C)NC(=O)[C@@H](N)C(C)C [Example 12, Ethyl (2S)-2-[[(2S)-2-amino-3-methyl-butanoyl]amino]-3-[5-[bis(2-chloroethyl)amino]-1-methyl-benzimidazol-2-yl]propanoate]
IC50 (Homo sapiens, MM1.S): 12.5 nM

COC(=O)[C@H](CC(C)C)NC(=O)[C@@H](N)Cc1nc2cc(N(CCCl)CCCl)ccc2n1C [Example 14, Methyl (2S)-2-[[(2S)-2-amino-3-[5-[bis(2-chloroethyl)amino]-1-methyl-benzimidazol-2-yl]propanoyl]amino]-4-methyl-pentanoate]
IC50 (Homo sapiens, MM1.S): 8.7 nM

CC(C)C[C@H](NC(=O)[C@@H](N)Cc1nc2cc(N(CCCl)CCCl)ccc2n1C)C(=O)OC(C)C [Example 15, Isopropyl (2S)-2-[[(2S)-2-amino-3-[5-[bis(2-chloroethyl)amino]-1-methyl-benzimidazol-2-yl]propanoyl]amino]-4-methyl-pentanoate]
IC50 (Homo sapiens, MM1.S): 9.1 nM

CCOC(=O)[C@H](CCc1nc2cc(N(CCCl)CCCl)ccc2n1C)NC(=O)[C@H](CC(C)C)NC(=O)[C@@H](N)Cc1ccc(F)cc1 [Example 16, Ethyl (2S)-2-[[(2S)-2-[[(2S)-2-amino-3-(4-fluorophenyl)propanoyl]amino]-4-methyl-pentanoyl]amino]-4-[5-[bis(2-chloroethyl)amino]-1-methyl-benzimidazol-2-yl]butanoate]
IC50 (Homo sapiens, MM1.S): 25 nM

Cn1c(C[C@H](N)C(=O)O)nc2cc(N(CCCl)CCCl)ccc21 [Example 17, (2S)-2-amino-3-[5-[bis(2-chloroethyl)amino]-1-methyl-benzimidazol-2-yl]propanoic acid]
IC50 (Homo sapiens, MM1.S): 40000 nM

CC(C)[C@H](NC(=O)[C@@H](N)CCc1nc2cc(N(CCCl)CCCl)ccc2n1C)C(=O)O [Example 19, (2S)-2-[[(2S)-2-amino-4-[5-[bis(2-chloroethyl)amino]-1-methyl-benzimidazol-2-yl]butanoyl]amino]-3-methyl-butanoic acid]
IC50 (Homo sapiens, MM1.S): 4020 nM

CCOC(=O)[C@H](CCc1nc2cc(N(CCCl)CCCl)ccc2n1C)NC(=O)[C@@H](CC(C)C)NC(=O)[C@@H](N)Cc1ccc(F)cc1 [Example 21, Ethyl (2S)-2-[[(2R)-2-[[(2S)-2-amino-3-(4-fluorophenyl)propanoyl]amino]-4-methyl-pentanoyl]amino]-4-[5-[bis(2-chloroethyl)amino]-1-methyl-benzimidazol-2-yl]butanoate]
IC50 (Homo sapiens, MM1.S): 26.6 nM

CCOC(=O)[C@H](Cc1ccc(F)cc1)NC(=O)[C@H](CC(C)C)NC(=O)[C@@H](N)CCc1nc2cc(N(CCCl)CCCl)ccc2n1C [Example 22, Ethyl (2S)-2-[[(2S)-2-[[(2S)-2-amino-4-[5-[bis(2-chloroethyl)amino]-1-methyl-benzimidazol-2-yl]butanoyl]amino]-4-methyl-pentanoyl]amino]-3-(4-fluorophenyl)propanoate]
IC50 (Homo sapiens, MM1.S): 31.3 nM

CCOC(=O)[C@H](CC(C)C)NC(=O)[C@H](CC(C)C)NC(=O)[C@@H](N)CCc1nc2cc(N(CCCl)CCCl)ccc2n1C [Example 23, Ethyl (2S)-2-[[(2S)-2-[[(2S)-2-amino-4-[5-[bis(2-chloroethyl)amino]-1-methyl-benzimidazol-2-yl]butanoyl]amino]-4-methyl-pentanoyl]amino]-4-methyl-pentanoate]
IC50 (Homo sapiens, MM1.S): 41.8 nM

CC(C)C[C@H](NC(=O)[C@@H](N)CCc1nc2cc(N(CCCl)CCCl)ccc2n1C)C(=O)OCCN1CCOCC1 [Example 24, 2-Morpholinoethyl (2S)-2-[[(2S)-2-amino-4-[5-[bis(2-chloroethyl)amino]-1-methyl-benzimidazol-2-yl]butanoyl]amino]-4-methyl-pentanoate]
IC50 (Homo sapiens, MM1.S): 156 nM

CC(C)C[C@H](NC(=O)[C@@H](N)CCc1nc2cc(N(CCCl)CCCl)ccc2n1C)C(=O)OCCOC(C)C [Example 25, 2-Isopropoxyethyl (2S)-2-[[(2S)-2-amino-4-[5-[bis(2-chloroethyl)amino]-1-methyl-benzimidazol-2-yl]butanoyl]amino]-4-methyl-pentanoate]
IC50 (Homo sapiens, MM1.S): 18.5 nM

CC(C)C[C@H](NC(=O)[C@@H](N)CCc1nc2cc(N(CCCl)CCCl)ccc2n1C)C(=O)OC(C)C [Example 26, Isopropyl (2S)-2-[[(2S)-2-amino-4-[5-[bis(2-chloroethyl)amino]-1-methyl-benzimidazol-2-yl]butanoyl]amino]-4-methyl-pentanoate]
IC50 (Homo sapiens, MM1.S): 6.8 nM

COC(=O)[C@H](CC(C)C)NC(=O)[C@@H](N)CCc1nc2cc(N(CCCl)CCCl)ccc2n1C [Example 27, Methyl (2S)-2-[[(2S)-2-amino-4-[5-[bis(2-chloroethyl)amino]-1-methyl-benzimidazol-2-yl]butanoyl]amino]-4-methyl-pentanoate]
IC50 (Homo sapiens, MM1.S): 8.2 nM

CC(C)C[C@H](NC(=O)[C@@H](N)CCc1nc2cc(N(CCCl)CCCl)ccc2n1C)C(=O)OCCCN(C)C [Example 28, 3-(Dimethylamino)propyl (2S)-2-[[(2S)-2-amino-4-[5-[bis(2-chloroethyl)amino]-1-methyl-benzimidazol-2-yl]butanoyl]amino]-4-methyl-pentanoate]
IC50 (Homo sapiens, MM1.S): 352 nM

COCC(C)OC(=O)[C@H](CC(C)C)NC(=O)[C@@H](N)CCc1nc2cc(N(CCCl)CCCl)ccc2n1C (stereo partly drawn) [Example 29, (2-Methoxy-1-methyl-ethyl) (2S)-2-[[(2S)-2-amino-4-[5-[bis(2-chloroethyl)amino]-1-methyl-benzimidazol-2-yl]butanoyl]amino]-4-methyl-pentanoate]
IC50 (CellTiter-Glo 2.0): 1.4 nM
